Results on 18 molecules are retold here after patent US12630565B2, “DNA-dependent protein kinase inhibitor” (DIZAL (JIANGSU) PHARMACEUTICAL CO., LTD., priority 2019, dated 2026).

Data set [1] has as its target Full length human DNAPK protein (Homo sapiens, UniProt P78527). The experiment in a line: DNA-PK enzymatic assay (TR-FRET). It counts as biochemical. The note with it: 10 μM ATP, 1.6 μM peptide substrate. Background: In TR-FRET formats the signal depends on donor and acceptor labels being close together.
Another data set concerns Rat hepatocyte. The experiment in a line: Metabolic stability assay (rat hepatocyte Clint). The note with it: 1 μM compound, cryopreserved hepatocytes 1 million cells per mL. The data set is classed as in vitro ADME. Here is the method:
Viability of cryopreserved hepatocytes was determined using trypan blue and the cell conc. was adjusted to […] with buffer. 1 μM compound (in Acetonitrile; 0.01% DMSO) was incubated with 250 μL of hepatocytecells (1 million cells per mL) in a 96 deep well plate. Reaction was stopped at different time points (0, 0.5, 5, 15, 30, 45, 60, 80, 100 and 120 min) by addition of 3 volumes of chilled acetonitrile to 20 μL of reaction mixture and centrifuged at 4° C. for 15 min. 40 μL of supernatant was diluted to 200 μL with pure water and analyzed using LC-MS/MS.
In vitro hepatocyte clearance was estimated based on determination of elimination half-life (T1/2) of compounds disappearance from their initial concentrations. Peak area ratios of each compound (test or control) to IS was calculated. Drug elimination rate constant k (min−1), T1/2 (min), and in vitro intrinsic clearance CLint (μL/min/E6) was calculated according to the following equations: […]
Where Chep (cells×μL^−1) is the cell concentration in the incubation system.

Data set [2] in a line: Metabolic stability assay (human microsomal Clint). The data set is classed as in vitro ADME. The note with it: 1 mg/mL microsomes, 1 mM NADPH, 37° C.; for Human liver microsomal CLint: 1 μM compound; for microsomal CLint at 1 μM: human, pooled human liver microsomes, pH 7.4, 1 μM compound. On the procedure:
1 μM compound was incubated with 1 mg/mL of microsomes (Pooled HLM with 20 mg/ml protein cone) at 37° C. in 250 μL of buffer (100 mM phosphate buffer, pH-7.4) containing 1 mM NADPH solution. 20 μL of incubation mix was quenched with 5 volumes chilled acetonitrile at different time points 0, 0.5, 5, 10, 15, 20 and 30 min in a fresh 96 well plate. The quench plate was centrifuged at 4000 rpm for 15 min. 40 μL of supernatant was diluted to 200 μL with pure water and analyzed using LC-MS/MS.
In vitro intrinsic clearance of the drugs in the microsome CLint (μl/min/mg) was calculated in the similar manner as the CLint in the hepatocyte.
In general terms: Microsomes from liver hold many membrane-bound enzymes, among them those of drug oxidation.

SMILES strings stand for the structures.

The term IC50 denotes the concentration that inhibits the measured activity by half. In turn, `COCCC(C)n1nc(C)c2cnc(Nc3cn4ncnc4cc3C)nc21` (single isomer, unassigned) [Example 68, 1-(4-methoxybutan-2-yl)-3-methyl-N-(7-methyl-[1,2,4]triazolo[1,5-a]pyridin-6-yl)-1H-pyrazolo[3,4-d]pyrimidin-6-amine] came in with an IC50 in data set [1] of 65.3 nM. For the same molecule, the “Rat hepatocyte CLint (μl/min/10^−6 cells)” value (from here on “Rat hepatocyte CLint”) with Rat hepatocyte was 37.0 μl/min/10^−6 cells. Further, in data set [2], the “Human liver microsomal CLint” value worked out at 201.9 µL/min/mg.
One may read the microsomal CLint as the rate of metabolic loss divided by the concentration. Higher therefore signals faster metabolism. Consider `Cc1cc2ncnn2cc1Nc1ncc2c(C)nn(C3CCC3)c2n1` [Example 45, 1-cyclobutyl-3-methyl-N-(7-methyl-[1,2,4]triazolo[1,5-a]pyridin-6-yl)-1H-pyrazolo[3,4-d]pyrimidin-6-amine], for which, in data set [1], the half-inhibitory concentration (IC50) turned out to be 4.3 nM. Also, the “Rat hepatocyte CLint” value in the data set with Rat hepatocyte is reported as 64.0 μl/min/10^−6 cells. This molecule registered a microsomal CLint at 1 μM in data set [2] of 70 µL/min/mg.
The like results for `Cc1cc2ncnn2cc1Nc1ncc2c(C)nn(CCOC(F)(F)F)c2n1` [Example 64, 3-methyl-N-(7-methyl-[1,2,4]triazolo[1,5-a]pyridin-6-yl)-1-(2-(trifluoromethoxy)ethyl)-1H-pyrazolo[3,4-d]pyrimidin-6-amine] were, in that order, 3.6 nM, 38.6 μl/min/10^−6 cells and 50.8 µL/min/mg.
Take `Cc1cc2ncnn2cc1Nc1ncc2c(n1)c(C1CCOCC1C)nn2C` (single isomer, unassigned) [Example 56, 1-methyl-N-(7-methyl-[1,2,4]triazolo[1,5-a]pyridin-6-yl)-3-(3-methyltetrahydro-2H-pyran-4-yl)-1H-pyrazolo[4,3-d]pyrimidin-5-amine]: it took 1.1 nM to reach half-maximal inhibition in data set [1] (IC50). This counts as single-digit nanomolar.
Molecule `Cc1cc2nccn2cc1Nc1ncc2c(C)nn(-c3ccc(C#N)cc3)c2n1` [Example 73, 4-(3-methyl-6-((7-methylimidazo[1,2-a]pyridin-6-yl)amino)-1H-pyrazolo[3,4-d]pyrimidin-1-yl)benzonitrile] had an IC50 in data set [1] of 1.3 nM. The IC50 values of the last two molecules are within 1.5-fold of each other.
Turning to `COCCC(C)n1nc(C)c2cnc(Nc3cn4ncnc4cc3C)nc21` (single isomer, unassigned) [Example 67, 1-(4-methoxybutan-2-yl)-3-methyl-N-(7-methyl-[1,2,4]triazolo[1,5-a]pyridin-6-yl)-1H-pyrazolo[3,4-d]pyrimidin-6-amine], the IC50 in data set [1] came out at 27 nM. Besides, the “Rat hepatocyte CLint” value in the data set on Rat hepatocyte came out at 8.3 μl/min/10^−6 cells. The same molecule displayed a microsomal CLint at 1 μM in data set [2] of 104 µL/min/mg.
For `Cc1cc2ncnn2cc1Nc1ncc2c(C)nn(C3CCCC3)c2n1` [Example 47, 1-cyclopentyl-3-methyl-N-(7-methyl-[1,2,4]triazolo[1,5-a]pyridin-6-yl)-1H-pyrazolo[3,4-d]pyrimidin-6-amine], in that order: 1.7 nM, 43.3 μl/min/10^−6 cells and 89.7 µL/min/mg.
Regarding `CCC(C)n1nc(C)c2cnc(Nc3cn4ncnc4cc3C)nc21` (single isomer, unassigned) [Example 61, 1-(sec-butyl)-3-methyl-N-(7-methyl-[1,2,4]triazolo[1,5-a]pyridin-6-yl)-1H-pyrazolo[3,4-d]pyrimidin-6-amine], the IC50 in data set [1] came to 3.5 nM. In the data set with Rat hepatocyte, the “Rat hepatocyte CLint” value was 5.2 μl/min/10^−6 cells. The microsomal CLint at 1 μM in data set [2] came out at 34.5 µL/min/mg.
The like results for `Cc1cc2nccn2cc1Nc1ncc2c(C)nn(C3CCC(F)(F)CC3)c2n1` [Example 22, 1-(4,4-difluorocyclohexyl)-3-methyl-N-(7-methylimidazo[1,2-a]pyridin-6-yl)-1H-pyrazolo[3,4-d]pyrimidin-6-amine] were, in that order, 1.3 nM, 40.9 μl/min/10^−6 cells and 115 µL/min/mg.
The like results for `Cc1cc2ncnn2cc1Nc1ncc2c(C)nn(C3CC4(CCC4)C3)c2n1` [Example 43, 3-methyl-N-(7-methyl-[1,2,4]triazolo[1,5-a]pyridin-6-yl)-1-(spiro[3.3]heptan-2-yl)-1H-pyrazolo[3,4-d]pyrimidin-6-amine] were, in that order, 1.5 nM, 16.9 μl/min/10^−6 cells and 173 µL/min/mg.
Consider `COC(C)Cn1nc(C)c2cnc(Nc3cn4ncnc4cc3C)nc21` (single isomer, unassigned) [Example 71, 1-(2-methoxypropyl)-3-methyl-N-(7-methyl-[1,2,4]triazolo[1,5-a]pyridin-6-yl)-1H-pyrazolo[3,4-d]pyrimidin-6-amine], for which the IC50 in data set [1] was determined as 6.4 nM. This lies in the single-digit nanomolar range.
As for `CCC(C)n1nc(C)c2cnc(Nc3cn4ncnc4cc3C)nc21` (single isomer, unassigned) [Example 62, 1-(sec-butyl)-3-methyl-N-(7-methyl-[1,2,4]triazolo[1,5-a]pyridin-6-yl)-1H-pyrazolo[3,4-d]pyrimidin-6-amine], the midpoint of inhibition in data set [1], the IC50, lay at 5.1 nM. In the data set with Rat hepatocyte, the “Rat hepatocyte CLint” value is recorded as 11.7 μl/min/10^−6 cells. Besides, in data set [2], the “Human liver microsomal CLint” value is 42.4 µL/min/mg.
Turning to `Cc1cc2ncnn2cc1Nc1ncc2c(C)nn([C@H]3CC[C@@H](F)CC3)c2n1` [Example 27, 1-((1s,4s)-4-fluorocyclohexyl)-3-methyl-N-(7-methyl-[1,2,4]triazolo[1,5-a]pyridin-6-yl)-1H-pyrazolo[3,4-d]pyrimidin-6-amine], in data set [1], the IC50 worked out at 1 nM. In addition, the “Rat hepatocyte CLint” value in the data set on Rat hepatocyte came to 10.8 μl/min/10^−6 cells. Besides, the microsomal CLint at 1 μM in data set [2] turned out to be 41.4 µL/min/mg.
As to `COC1CC2(C1)CC(n1nc(C)c3cnc(Nc4cn5ncnc5cc4C)nc31)C2` (stereo not drawn) [Example 54, 1-(6-methoxyspiro[3.3]heptan-2-yl)-3-methyl-N-(7-methyl-[1,2,4]triazolo[1,5-a]pyridin-6-yl)-1H-pyrazolo[3,4-d]pyrimidin-6-amine], in data set [1], the IC50 worked out at 1.5 nM.
The same measure, in the same setting: the value for `Cc1cc2ncnn2cc1Nc1ncc2c(n1)c(C1CCOCC1C)nn2C` (single isomer, unassigned) [Example 55, 1-methyl-N-(7-methyl-[1,2,4]triazolo[1,5-a]pyridin-6-yl)-3-(3-methyltetrahydro-2H-pyran-4-yl)-1H-pyrazolo[4,3-d]pyrimidin-5-amine] was 2.5 nM.
Regarding `Cc1cc2ncnn2cc1Nc1ncc2c(C)nn(CC3CCC3)c2n1` [Example 46, 1-(cyclobutylmethyl)-3-methyl-N-(7-methyl-[1,2,4]triazolo[1,5-a]pyridin-6-yl)-1H-pyrazolo[3,4-d]pyrimidin-6-amine], it took 3.3 nM to reach half-maximal inhibition in data set [1] (IC50). Besides, the “Rat hepatocyte CLint” value in the data set on Rat hepatocyte is recorded as 60.9 μl/min/10^−6 cells. Besides, the microsomal CLint at 1 μM in data set [2] turned out to be 105 µL/min/mg.
For `Cc1cc2ncnn2cc1Nc1ncc2c(C)nn([C@H]3CC[C@H](F)CC3)c2n1` [Example 28, 1-((1r,4r)-4-fluorocyclohexyl)-3-methyl-N-(7-methyl-[1,2,4]triazolo[1,5-a]pyridin-6-yl)-1H-pyrazolo[3,4-d]pyrimidin-6-amine], in that order: 1.3 nM, 14.1 μl/min/10^−6 cells and 70 µL/min/mg.
In data set [1], `COC(C)Cn1nc(C)c2cnc(Nc3cn4ncnc4cc3C)nc21` (single isomer, unassigned) [Example 70, 1-(2-methoxypropyl)-3-methyl-N-(7-methyl-[1,2,4]triazolo[1,5-a]pyridin-6-yl)-1H-pyrazolo[3,4-d]pyrimidin-6-amine] returned an IC50 of 4.3 nM.
